Measurements as given in patent US10280152B2, “Imaging of glycogen synthase kinase 3” (The General Hospital Corporation, priority 2015, dated 2019).

Experiments:
[1] = tested on: GSK-3; details: literature radiotracers; SB-216763 in rodents and non-human primates; cited from earlier work
[2] = tested on: other structurally similar kinases; details: cited from earlier work
[3] = Determination of Log D7.4 (1-octanol/PBS shake flask, gamma counting); type: physicochemical; details: 1-octanol / PBS buffer pH 7.4, n=7
Experimental: The measurement of lipophilicity was carried out using literature procedure. Purified and reformulated [^11C] labelled compound (1) (˜50 μL) was added to a separating funnel containing PBS buffer (pH 7.4) and 1-octanol (pre-saturated with PBS buffer) (˜20 mL each). The octanol layer was collected and dispensed into 8 centrifuge tubes (2 mL each) containing PBS buffer (2 mL each). The tubes were mixed by vortex for 2 min and then centrifuged for 5 min. Approximately 0.5 mL of the octanol layer and 1.0 mL of the aqueous from each centrifuge tube was then transferred to pre-weighed test tubes (16 in total). The tubes were capped and assayed using an automated gamma counter. The tubes were then uncapped and weighed to determine the total volume of the liquid in each. The log D7.4 of [^11C] labelled compound (1) was determined to be 2.14 (n=7).

[4] = tested on: GSK-3; assay: PET imaging in rat; type: in vivo; details: rat (n=1), bolus i.v., at 1-2 min
[5] = tested on: GSK-3; assay: PET imaging in rhesus monkeys; type: in vivo; details: for brain penetration and specific binding (in words): PET imaging in animals / non-human primate brain
Experimental: To determine the in vivo distribution and pharmacokinetic profile of compound (1) in higher species of nonhuman primates, compound (1) was radiolabelled with carbon-11 and the permeability of compound (1) was evaluated in the living brain using positron emission tomography. [^11C] labelled compound (1) was synthesized in 5% uncorrected radiochemical yield (relative to [^11C]CO2) by reaction of the corresponding phenolic precursor in the presence of tetrabutylammonium hydroxide in DMF with [^11C]CH3I with specific activity >2 Ci/μmol (n=15).
Bolus i.v. administration of [^11C]-labelled compound (1) in rhesus monkeys (5-7 mCi) reached a whole brain peak uptake (2 SUV) with fairly uniform brain distribution followed by a fast clearance (1 SUV at 40 min). […] Liang et al., “Discovery of [^11C]PF-367 for neuroimaging of glycogen synthase kinase 3”, J. Nucl. Med., 2015, 56(Supp. 3), 491.

Row | Compound | brain uptake in vivo (in words) [1] | selectivity against other structurally similar kinases (in words) [2] | logD [3] | maximum uptake [4] | brain penetration and specific binding (in words) ([5]; listed as 11C-isotopologue of compound (1)) | brain penetration and specific binding (in words) ([5]; listed as [^11C] labelled compound (1)) | whole brain peak uptake ([5]; rhesus monkeys, bolus i.v., 5-7 mCi, baseline) [SUV] | brain uptake at 40 min (clearance) ([5]; rhesus monkeys, bolus i.v., baseline, 40 min) [SUV] | peak uptake ([5]; rhesus monkeys, co-administration with unlabelled compound (1) 0.1 mg/kg) [SUV] | binding at 40 min in all brain regions ([5]; rhesus monkeys, co-administration with unlabelled compound (1) 0.1 mg/kg, 40 min) [SUV]
1 | [11CH3]n1cc(C2=C(c3ccc(Cl)cc3Cl)C(=O)NC2=O)c2ccccc21 [[^11C]SB-216763] | good brain uptake | not selective |  |  |  |  |  |  |  | 
2 | [11CH3]Oc1ccc(-c2ocnc2C(=O)NCCCn2cncn2)cc1Cl [compound (2), N-(3-(1H-1,2,4-Triazol-1-yl)propyl)-5-(3-chloro-4-[^11C]methoxyphenyl)oxazole-4-carboxamide] |  |  | 2.14 | about 1 SUV | high brain permeability and specificity | confirmed brain penetration and displaceable specific binding | 2 | 1 | 3.5 | 0.3
